ChEMBL document CHEMBL1136726, “Synthesis and characterization of iodine-123 labeled 2beta-carbomethoxy-3beta-(4'-((Z)-2-iodoethenyl)phenyl)nortropane. A ligand for in vivo imaging of serotonin transporters by single-photon-emission tomography” (J Med Chem, 2003)

How the values were obtained:
[1] = biological target: T1, Sodium-dependent serotonin transporter (Homo sapiens, UniProt P31645); assay: Binding affinity towards serotonin transporter (SERT) by using [3H]paroxetine as radioligand
[2] = biological target: Sodium-dependent noradrenaline transporter (Homo sapiens, UniProt P23975); assay: In vitro competitive binding versus [3H]- […] in murine kidney cells transfected with cDNA for human norepinephrine transporter (NET); type: cell-based
Sodium-dependent noradrenaline transporter, sequence (P23975 whole entry): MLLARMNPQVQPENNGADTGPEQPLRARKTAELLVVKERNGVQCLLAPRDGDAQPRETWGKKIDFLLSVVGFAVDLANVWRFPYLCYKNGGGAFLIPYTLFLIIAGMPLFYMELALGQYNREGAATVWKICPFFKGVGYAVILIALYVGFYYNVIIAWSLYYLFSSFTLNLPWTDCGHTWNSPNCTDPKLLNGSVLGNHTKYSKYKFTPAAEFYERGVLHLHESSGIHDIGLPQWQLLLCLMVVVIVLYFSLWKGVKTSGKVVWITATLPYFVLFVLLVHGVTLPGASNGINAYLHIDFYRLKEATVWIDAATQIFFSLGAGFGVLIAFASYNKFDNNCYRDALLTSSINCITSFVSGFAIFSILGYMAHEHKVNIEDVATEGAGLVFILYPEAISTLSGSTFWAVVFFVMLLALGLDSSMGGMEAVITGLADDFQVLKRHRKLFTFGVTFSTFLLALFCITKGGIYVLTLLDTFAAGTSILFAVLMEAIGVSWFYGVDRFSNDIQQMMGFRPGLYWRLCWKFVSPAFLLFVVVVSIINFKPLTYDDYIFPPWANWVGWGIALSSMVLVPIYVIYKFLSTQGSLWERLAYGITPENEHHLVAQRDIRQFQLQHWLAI

[3] = biological target: T2, Sodium-dependent dopamine transporter (Homo sapiens, UniProt Q01959); assay: In vitro competitive binding versus [N-methyl-3H]WIN-35428 in murine kidney cells transfected with cDNA for human dopamine transporter (DAT); type: cell-based
T2 sequence (Q01959 whole entry): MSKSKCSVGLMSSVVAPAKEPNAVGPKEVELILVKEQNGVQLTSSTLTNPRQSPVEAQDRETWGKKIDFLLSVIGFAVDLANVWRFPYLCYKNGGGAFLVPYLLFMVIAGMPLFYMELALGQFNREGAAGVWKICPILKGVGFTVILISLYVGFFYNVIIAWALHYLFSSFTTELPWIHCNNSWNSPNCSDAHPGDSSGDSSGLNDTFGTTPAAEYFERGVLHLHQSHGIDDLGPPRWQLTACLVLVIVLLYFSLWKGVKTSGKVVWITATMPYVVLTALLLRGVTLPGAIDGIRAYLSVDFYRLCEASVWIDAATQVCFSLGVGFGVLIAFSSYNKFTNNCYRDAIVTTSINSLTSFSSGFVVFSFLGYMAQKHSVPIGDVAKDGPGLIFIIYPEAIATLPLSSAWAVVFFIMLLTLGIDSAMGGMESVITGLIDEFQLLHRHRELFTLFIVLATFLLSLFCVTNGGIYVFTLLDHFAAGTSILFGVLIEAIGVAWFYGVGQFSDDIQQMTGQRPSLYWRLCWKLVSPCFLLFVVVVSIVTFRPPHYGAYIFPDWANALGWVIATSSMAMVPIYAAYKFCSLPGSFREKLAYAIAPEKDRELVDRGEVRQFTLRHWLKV

[4] = biological target: T1, Sodium-dependent serotonin transporter; assay: In vitro competitive binding versus [3H]-citalopram in murine kidney cells transfected with cDNA for human serotonin transporter (SERT); type: cell-based
[5] = biological target: T2, Sodium-dependent dopamine transporter; assay: Binding affinity towards dopamine transporter (DAT) by using [3H]WIN-35428 as radioligand
[6] = biological target: T1, Sodium-dependent serotonin transporter; assay: Binding affinity towards serotonin transporter (SERT)
[7] = biological target: T1, Sodium-dependent serotonin transporter; assay: In vitro competitive binding versus [3H]citalopram in murine kidney cells transfected with cDNA for human serotonin transporter (SERT); type: cell-based

T1 sequence (P31645 whole entry): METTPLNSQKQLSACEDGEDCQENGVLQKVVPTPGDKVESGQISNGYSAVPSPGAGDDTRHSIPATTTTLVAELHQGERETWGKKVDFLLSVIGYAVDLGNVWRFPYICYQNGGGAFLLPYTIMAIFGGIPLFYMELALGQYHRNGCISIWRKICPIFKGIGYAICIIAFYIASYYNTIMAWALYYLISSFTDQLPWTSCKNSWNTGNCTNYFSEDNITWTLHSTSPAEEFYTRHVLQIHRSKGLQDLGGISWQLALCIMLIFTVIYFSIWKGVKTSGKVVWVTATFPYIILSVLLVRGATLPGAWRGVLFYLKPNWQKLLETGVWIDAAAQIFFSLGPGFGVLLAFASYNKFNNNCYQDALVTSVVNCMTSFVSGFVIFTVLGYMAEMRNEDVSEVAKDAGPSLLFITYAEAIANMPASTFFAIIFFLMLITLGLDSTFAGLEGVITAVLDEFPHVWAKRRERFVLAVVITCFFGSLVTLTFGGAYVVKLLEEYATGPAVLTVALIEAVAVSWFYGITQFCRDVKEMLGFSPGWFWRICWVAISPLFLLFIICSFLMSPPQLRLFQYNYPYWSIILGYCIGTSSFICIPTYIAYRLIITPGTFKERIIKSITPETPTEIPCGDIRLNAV

C=C(C)c1ccc([C@H]2CC3CCC(N3)[C@H]2C(=O)CC)cc1 (stereo not given in full)
IC50 [1]: 0.16 nM

COC(=O)[C@@H]1C2CCC(C[C@@H]1c1ccc(/C=C/I)cc1)N2 (stereo not given in full)
Ki [2]: 32 nM | Ki [3]: 1.88 nM | Ki [4]: 1.15 nM

C/C=C/c1ccc([C@H]2CC3CCC([C@H]2C(=O)OC)N3C)cc1 (stereo not given in full)
IC50 [1]: 1.3 nM | IC50 [5]: 28 nM

COC(=O)[C@@H]1C2CC[C@H](C[C@@H]1c1ccc(I)cc1)N2C
Ki [2]: 1.4 nM | Ki [3]: 0.48 nM | IC50 [6]: 4.2 nM | Ki [7]: 0.67 nM

COC(=O)[C@@H]1C2CCC(C[C@@H]1c1ccc(I)cc1)N2 (stereo not given in full)
Ki [3]: 0.12 nM | IC50 [6]: 0.36 nM

C=Cc1ccc([C@H]2CC3CCC(N3)[C@H]2C(=O)CC)cc1 (stereo not given in full)
IC50 [1]: 0.32 nM

C/C=C\c1ccc([C@H]2CC3CCC([C@H]2C(=O)OC)N3C)cc1 (stereo not given in full)
IC50 [1]: 1.15 nM | IC50 [5]: 32 nM
